Test results reported in US12077503B2, “Substituted cyclic amides and their use as herbicides” (FMC CORPORATION, priority 2015, dated 2024).

Key:
Format in all cases: in vivo
[1] = system: barnyardgrass (Echinochloa crus-galli); test: Test A postemergence; conditions: Echinochloa crus-galli, post-emergence, 240 h, Postemergence
In short: (§1)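 Seeds sprayed preemergence with a directed soil spray, or plants at 2 to 10 cm height and one- to two-leaf stage sprayed postemergence, with test chemicals in a non-phytotoxic solvent mixture containing surfactant, in loam soil–sand blend. Injury rated visually against untreated controls after about 10 d in greenhouse, 0 (no effect) to 100 (complete control).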

[2] = system: ragweed (common ragweed, Ambrosia elatior); test: Test A postemergence; conditions: Ambrosia artemisiifolia, post-emergence, 240 h, Postemergence
In short: as §1

Kochia (Kochia scoparia) [3] = test: Test A postemergence; conditions: Bassia scoparia, post-emergence, 240 h, Postemergence
In short: as §1

[4] = system: wheat (Triticum aestivum); test: Test A postemergence; conditions: Triticum aestivum, post-emergence, 240 h, Postemergence
In short: as §1

corn (Zea mays) = test: Test A postemergence; conditions: Zea mays, post-emergence, 240 h, Postemergence
In short: as §1

[5] = system: Galium (catchweed bedstraw, Galium aparine); test: Test A postemergence; conditions: Galium, post-emergence, 240 h, Postemergence
In short: as §1

[6] = system: giant foxtail (Setaria faberii); test: Test A postemergence; conditions: Setaria faberi, post-emergence, 240 h, Postemergence
In short: as §1

[7] = system: pigweed (Amaranthus retroflexus); test: Test A postemergence; conditions: Amaranthus retroflexus, post-emergence, 240 h, Postemergence
In short: as §1

[8] = system: blackgrass (Alopecurus myosuroides); test: Test A postemergence; conditions: Alopecurus myosuroides, post-emergence, 240 h, Postemergence
In short: as §1

[9] = system: barnyardgrass (Echinochloa crus-galli); test: Test A preemergence; conditions: Echinochloa crus-galli, pre-emergence, 240 h, preemergence, 0 to 100 scale where 0 is no effect and 100 is complete control, read-out: Barnyardgrass plant response rating
In short: as §1

[10] = system: ryegrass, Italian (Italian ryegrass, Lolium multiflorum); test: Test A preemergence; conditions: Lolium multiflorum, pre-emergence, 240 h, preemergence, 0 to 100 scale where 0 is no effect and 100 is complete control, read-out: Ryegrass, Italian plant response rating
In short: as §1

[11] = system: ragweed (common ragweed, Ambrosia elatior); test: Test A preemergence; conditions: Ambrosia artemisiifolia, pre-emergence, 240 h, preemergence, 0 to 100 scale where 0 is no effect and 100 is complete control, read-out: Ragweed plant response rating
In short: as §1

Kochia (Kochia scoparia) [12] = test: Test A preemergence; conditions: Bassia scoparia, pre-emergence, 240 h, preemergence, 0 to 100 scale where 0 is no effect and 100 is complete control, read-out: Kochia plant response rating
In short: as §1

[13] = system: giant foxtail (Setaria faberii); test: Test A preemergence; conditions: Setaria faberi, pre-emergence, 240 h, preemergence, 0 to 100 scale where 0 is no effect and 100 is complete control, read-out: Foxtail, Giant plant response rating
In short: as §1

[14] = system: pigweed (Amaranthus retroflexus); test: Test A preemergence; conditions: Amaranthus retroflexus, pre-emergence, 240 h, preemergence, 0 to 100 scale where 0 is no effect and 100 is complete control, read-out: Pigweed plant response rating
[15] = 125 g ai/ha, visual injury rating, approximately 10 d

`COc1cc([C@H]2CN(C)C(=O)[C@@H]2C(=O)Nc2ccccc2F)ccc1F` [Compound 1298] gave a pest or weed control at 125 g/ha ([1]; 125 g ai/ha, visual rating about 10 d after treatment, read-out: Barnyardgrass plant response rating (0 to 100 scale, 0 no effect, 100 complete control)) of 80%, a pest or weed control at 500 g/ha ([1]; 500 g ai/ha, visual injury, 0 to 100 scale (0 no effect, 100 complete control), approx. 10 d, read-out: Plant response rating, Barnyardgrass) of 80% and a pest or weed control at 125 g/ha ([2]; 125 g ai/ha, visual rating about 10 d after treatment, read-out: Ragweed plant response rating (0 to 100 scale)) of 0%. The pest or weed control at 500 g/ha ([2]; 500 g ai/ha, visual injury, 0 to 100 scale (0 no effect, 100 complete control), approx. 10 d, read-out: Plant response rating, Ragweed) was 0%, the pest or weed control at 125 g/ha (Kochia (Kochia scoparia) [3]; 125 g ai/ha, visual rating about 10 d after treatment, read-out: Kochia plant response rating (0 to 100 scale)) was 0% and the pest or weed control at 500 g/ha (Kochia (Kochia scoparia) [3]; 500 g ai/ha, visual injury, 0 to 100 scale (0 no effect, 100 complete control), approx. 10 d, read-out: Plant response rating, Kochia) was 0%. For the same compound, the plant injury at 125 g/ha ([4]; 125 g ai/ha, visual rating about 10 d after treatment, read-out: Wheat plant response rating (0 to 100 scale)) was 0%, the plant injury at 500 g/ha ([4]; 500 g ai/ha, visual injury, 0 to 100 scale (0 no effect, 100 complete control), approx. 10 d, read-out: Plant response rating, Wheat) was 20% and the plant injury at 125 g/ha (corn (Zea mays); 125 g ai/ha, visual rating about 10 d after treatment, read-out: Corn plant response rating (0 to 100 scale)) was 0%. For the same compound, the Corn plant response rating (crop injury, 0 = no effect, 100 = complete kill) at 500 g/ha (corn (Zea mays); 500 g ai/ha, visual injury, 0 to 100 scale (0 no effect, 100 complete control), approx. 10 d) was 0%, the pest or weed control at 125 g/ha ([5]; 125 g ai/ha, visual rating about 10 d after treatment, read-out: Galium plant response rating (0 to 100 scale)) was 0% and the pest or weed control at 500 g/ha ([5]; 500 g ai/ha, visual injury, 0 to 100 scale (0 no effect, 100 complete control), approx. 10 d, read-out: Plant response rating, Galium) was 20%. The pest or weed control at 125 g/ha ([6]; 125 g ai/ha, visual rating about 10 d after treatment, read-out: Foxtail, Giant plant response rating (0 to 100 scale)) was 70%, the pest or weed control at 500 g/ha ([6]; 500 g ai/ha, visual injury, 0 to 100 scale (0 no effect, 100 complete control), approx. 10 d, read-out: Plant response rating, Foxtail, Giant) was 90% and the pest or weed control at 125 g/ha ([7]; 125 g ai/ha, visual rating about 10 d after treatment, read-out: Pigweed plant response rating (0 to 100 scale)) was 0%. It also gave a pest or weed control at 500 g/ha ([7]; 500 g ai/ha, visual injury, 0 to 100 scale (0 no effect, 100 complete control), approx. 10 d, read-out: Plant response rating, Pigweed) of 0%, a pest or weed control at 125 g/ha ([8]; 125 g ai/ha, visual rating about 10 d after treatment, read-out: Blackgrass plant response rating (0 to 100 scale)) of 0% and a pest or weed control at 500 g/ha ([8]; 500 g ai/ha, visual injury, 0 to 100 scale (0 no effect, 100 complete control), approx. 10 d, read-out: Plant response rating, Blackgrass) of 0%. The pest or weed control at 125 g/ha [9, 15] was 80%, the pest or weed control at 500 g/ha ([9]; 500 g ai/ha) was 90% and the pest or weed control at 125 g/ha [10, 15] was 0%. The pest or weed control at 500 g/ha ([10]; 500 g ai/ha) was 0%, the pest or weed control at 125 g/ha [11, 15] was 0% and the pest or weed control at 500 g/ha ([11]; 500 g ai/ha) was 20%. It also gave a pest or weed control at 125 g/ha (Kochia (Kochia scoparia) [12]; [15]) of 0%, a pest or weed control at 500 g/ha (Kochia (Kochia scoparia) [12]; 500 g ai/ha) of 80% and a pest or weed control at 125 g/ha [13, 15] of 90%. The pest or weed control at 500 g/ha ([13]; 500 g ai/ha) was 90%, the pest or weed control at 125 g/ha [14, 15] was 0% and the pest or weed control at 500 g/ha ([14]; 500 g ai/ha) was 0%.
